From patent publication US20160143917A1, “COMPOSITIONS AND METHODS FOR MODULATING HIV ACTIVATION” (priority 2013, published 2016)
Where “and” joins values, the source holds several entries; their conditions need not be identical. Identical values can stand only once.

Legend:
[1] = test system: latently HIV provirus infected Jurkat (T-cell) clone 2D10 cells carrying a GFP-expressing provirus; assay: Reactivation of latent HIV provirus (GFP expression) in 2D10 cells; type: cell-based, human; settings: for Un-stimulated: drug alone, no TNFα or SAHA, drug concentration (Fulvestrant 2.5 μM, Y-134 5 μM, Endoxifen 5 μM, MPP 5 μM, Tamoxifen 10 μM, Gossypol 5 μM, PPT 100 μM, Stilbestrol 5 μM); for 250 nM SAHA drug: drug at row concentration plus sub-optimum 250 nM SAHA; for +100 pg/ml TNFα drug: drug plus sub-optimum 100 pg/ml TNFα; for +400 pg/ml TNFα drug: pre-treatment with agonist at row concentration plus 400 pg/ml TNFα; for 2 μM SAHA drug: pre-treatment with agonist at row concentration plus 2 μM SAHA
Description: Still other ESR-1 antagonists can be identified and screened for potential induction of latent HIV activation by using cell based assays described in Examples 1 and 2. For example to determine whether a composition or potential ESR-1 antagonist can induce HIV-1 provirus re-activation in latently infected primary T-cells (Th17), the ESR-1 antagonist can be administered to latently HIV provirus infected Jurkat (T-cell) clone 2D10 cells carrying a GFP-expressing provirus. The level of GFP expression can then be measured to determine activation. In another example, the ESR-1 antagonist can be administered to the latently infected primary T-cells (Th17) and phosphorylation of serine 175 of CDK9 can be measured by flow cytometry analysis. Along with CDK9 pSer175, expression of viral protein Nef can also measured.
FIG. 2 illustrates the ESR1 antagonist Fulvestrant weakly stimulates 2D10 reactivation and sensitizes the cells to reactivation by sub-optimal concentrations of TNF-α. A. Unstimulated cells showing the low basal activation levels of approximately 2%. […] C. Activation of cells with 2.5 μM Fulvestrant.
To further validate involvement of ESR-1 in latency maintenance program, we have examined a series of antagonists and agonist as represented in Table 2 on 2D10. In all the cases it was observed that blocking of ESR-1 by antagonist either constitutively re-activate or sensitizes the pro-virus to sub-optimum dose of TNFα (100 pg/ml) and SAHA (250 nM).

[2] = test system: CHME5/HIV cells, a latently infected Fetal Microglia Cell line; assay: Reactivation of latent HIV provirus (GFP expression) in microglial cells; type: cell-based
Description: FIGS. 5(A-D) illustrate histograms showing GFP expression in CHME5/HIV cells, a latently infected Fetal Microglia Cell line carrying a GFP-expressing provirus, that are: (A) unstimulated; (B) administered a suboptimal dose of TNFα (10 ng/ml); (C) administered […] Fulvestrant; or (D) pre-treated with Fulvestrant and administered a suboptimal dose of TNFα.
A. Unstimulated CHME5/HIV cells, a latently infected Fetal Microglia Cell line. Basal activation levels were 2.31%. B. Reactivation of CHME5/HIV cells with a suboptimal dose of TNFα (10 ng/ml) induced 13.96% of the proviruses. C. […] These observations indicate that pro-virus reactivation by modulating the ESR-1 is specific for T-cell.

[3] = test system: Latently HIV-1 infected Th17 primary cells; assay: Reactivation of latent provirus in primary Th17 cells, HIV Nef protein expression; type: cell-based; settings: single agent; untreated cells 2.54%
Description: FIG. 3 illustrates latently infected primary T-cells are reactivated by the ESR1 antagonist, Fulvestrant (ICI.182780). […] B. Stimulation of the latently infected cells through the T-cell receptor using antibodies to CD3/CD28 re-activated 60.82% of the cells in the population. C. […] Method: Naive T-cells from healthy donors were activated using anti-CD3/[…] antibodies and polarized in the direction of primary Th-17 cells using a cocktail of cytokines. The exponentially growing cells were infected with HIV-1 virus containing d2EGFP fused to CD8a for surface expression of the reporter gene. The CD8a positive cells were purified using CD8a antibody conjugated magnetic beads. The HIV-1 infected cells were allowed to become quiescent by culturing in media containing minimal levels of IL2.

[4] = test system: latently infected primary T-cells (Th17); assay: CDK9 pSer175 and Nef by flow cytometry in latently infected primary T-cells; type: cell-based
Description: At the time of HIV-1 provirus re-activation one of the key marker is phosphorylation of serine 175 amino acid residue of CDK9 (CDK9 pSer175). To determine the status of HIV-1 provirus re-activation in latently infected primary T-cells (Th17) by ESR-1 antagonist Tamoxifen, phosphorylation of serine 175 of CDK9 was measured by flow cytometry analysis. Along with CDK9 pSer175, expression of viral protein Nef was also measured. […] Keeping that in mind, latently infected primary T-cell was treated with tamoxifen and SAHA alone or in combination where sub-optimum dose of (250 nM) was used (FIGS. 11 B, D, E). […] Therefore re-activation of latent provirus in Gossypol and/or SAHA treated primary T-cell was also examined (FIGS. 11 C-D).

Molecule: CC/C(=C(\c1ccc(O)cc1)c1ccc(OCCNC)cc1)c1ccccc1 [Endoxifen]
- Un-stimulated [1]: 9.70%
- 250 nM SAHA drug [1]: 26.63%
- +100 pg/ml TNFα drug [1]: 29.31%

Molecule: C[C@]12CC[C@@H]3c4ccc(O)cc4C[C@@H](CCCCCCCCC[S+]([O-])CCCC(F)(F)C(F)(F)F)[C@H]3[C@@H]1CC[C@@H]2O (stereo partly shown) [Fulvestrant]
- reactivation of latent provirus (GFP) ([1]; 2.5 μM Fulvestrant alone): small but significant reactivation
- GFP levels ([1]; 50 μM Fulvestrant alone): 8.05%
- Un-stimulated [1]: 2.68%
- 250 nM SAHA drug [1]: 17.78%
- +100 pg/ml TNFα drug [1]: 41.01%
- reactivation of latent population (GFP) ([1]; one hour pre-treatment with Fulvestrant, then 100 pg/ml TNFα): 41.01%
- reactivation of pro-virus (GFP) ([1]; pre-treatment with Fulvestrant (50 μM) for one hour, then 250 nM SAHA): 18.80%
- stimulation of CHME5/HIV cells (GFP) ([2]; 2.5 mM Fulvestrant alone): did not stimulated CHME5/HIV cells beyond basal levels
- sensitization towards TNFα stimulation (GFP) ([2]; pre-treatment with Fulvestrant, then suboptimal TNFα (10 ng/ml)): did not sensitize the latent population towards TNFα stimulation
- latent proviruses/cells re-activated, measured by expression of the HIV Nef protein [3]: 25.27%

Molecule: Cc1cc2c(C(C)C)c(O)c(O)c(C=O)c2c(O)c1-c1c(C)cc2c(C(C)C)c(O)c(O)c(C=O)c2c1O [Gossypol]
- proviral re-activation (GFP) ([1]; 5 μM Gossypol alone): 30.58%
- re-activation (GFP) ([1]; 5 μM Gossypol combined with 100 pg/ml TNFα (sub-optimum)): 60.15%
- Un-stimulated [1]: 30.58%
- +100 pg/ml TNFα drug [1]: 60.15%
- pro-virus re-activation (GFP) ([2]; Gossypol alone): 1.60%
- re-activation of pro-virus (GFP) ([2]; Gossypol combined with 10 ng/ml TNFα (sub-optimum)): 10.24%

Molecule: Cc1c(-c2ccc(O)cc2)nn(-c2ccc(O)cc2)c1-c1ccc(OCCN2CCCCC2)cc1 [MPP]
- Un-stimulated [1]: 14.49%
- 250 nM SAHA drug [1]: 31.14%
- +100 pg/ml TNFα drug [1]: 39.60%

Molecule: CCCc1c(-c2ccc(O)cc2)nn(-c2ccc(O)cc2)c1-c1ccc(O)cc1 [PPT, 4,4′,4″-(4-Propyl-[1H]-pyrazole-1,3,5-triyl)trisphenol]
- reactivation of latently infected cells (GFP) ([1]; 100 μM PPT alone): not reactivated
- Un-stimulated [1]: 3.57%
- activation of the cells (GFP) ([1]; pre-treatment with PPT, then SAHA (1 μM)): 8.77%
- +400 pg/ml TNFα drug [1]: 13.41%
- 2 μM SAHA drug [1]: 6.76%
- reactivation induced by TNFα (GFP) ([1]; pretreatment with PPT for one hour, then 400 pg/ml TNFα): 13.41%

Molecule: O=C(CCCCCCC(=O)Nc1ccccc1)NO [SAHA, suberoylanilide hydroxamic acid]
- cells induced (GFP) ([1]; 250 nM SAHA alone (sub-optimum)): 5.25%
- re-activation of the population (GFP) ([1]; 1 μM SAHA alone): 65.87%
- 250 nM SAHA ([1]; Control (2D10), 250 nM SAHA alone, no ESR-1 drug): 14.34%
- 2 μM SAHA ([1]; Control (2D10), 2 μM SAHA alone, no ESR-1 drug): 65.43% and 71.83%

Molecule: CC/C(=C(/CC)c1ccc(O)cc1)c1ccc(O)cc1 [Stilbestrol]
- Un-stimulated [1]: 6.20%
- +400 pg/ml TNFα drug [1]: 33.70%
- 2 μM SAHA drug [1]: 4.34%
- effect of agonist pre-treatment on provirus re-activation ([1]; pre-treatment, optimum dose of TNFα (400 pg/ml) and SAHA (2 μM)): block the re-activation of latent pro-virus

Molecule: CC/C(=C(\c1ccccc1)c1ccc(OCCN(C)C)cc1)c1ccccc1 [Tamoxifen]
- re-activation of latent provirus (CDK9 pSer175 and Nef expression) ([4]; drug alone): failed to re-activate latent provirus
- re-activation of latent provirus (CDK9 pSer175 and Nef expression) ([4]; drug combined with sub-optimum SAHA (250 nM)): elevated expression of both CDK9 pSer175 and Nef
- Un-stimulated [1]: 12.09%
- 250 nM SAHA drug [1]: 22.50%
- +100 pg/ml TNFα drug [1]: 33.03%

Molecule: C[C@]12CC[C@@H]3c4ccc(O)cc4CC[C@H]3[C@@H]1CC[C@@H]2O [β-estradiol]
- stimulation of latent HIV proviruses (GFP) ([1]; estrogen-depleted media, 2 ng/ml β-estradiol alone): does not stimulate latent HIV proviruses
- responsiveness to TNFα (GFP) ([1]; estrogen-depleted media, 2 ng/ml β-estradiol plus 400 pg/ml TNFα): did not enhance responsiveness

Molecule: TNFα
- re-activation of latent provirus (GFP) ([1]; 100 pg/ml TNFα alone (sub-optimal)): 15.95%
- proviral re-activation (GFP) ([1]; 400 pg/ml TNFα alone): 70.88%
- +100 pg/ml TNFα ([1]; Control (2D10), 100 pg/ml TNFα alone, no ESR-1 drug): 16.15%
- 400 pg/ml TNFα ([1]; Control (2D10), 400 pg/ml TNFα alone, no ESR-1 drug): 70.88% and 88.12%
- proviruses stimulated (GFP) ([1]; phenol-red free media, 10% charcoal-stripped FBS (estrogen-depleted), 400 pg/ml TNFα alone): 79.59%
- proviruses induced (GFP) ([2]; 10 ng/ml TNFα alone (suboptimal), basal 2.31%): 13.96%
